Measured values taken from PubChem BioAssay AID2060513 (Molecular Pharmacology Branch, DTP, NCI, 2025).
Where “and” joins values, the source holds several entries; their conditions need not be identical. Equal entries are not always repeated.

System: 299254-011-R-J1-PDC complex spheroids viability
Experiment: Anticancer human tumor 299254-011-R-J1-PDC patient-derived melanoma cell line growth inhibition [GQUAD]
Conditions: for viability, T/C: stronger effect = lower value; active = viability on the fitted dose curve at most 10% of control; inactive = the rest
Excerpt: DNA G-quadruplex Stabilizer Agents in Combinations in Complex Spheroids
A high-throughput screen of multi-cell type tumor spheroids was designed to identify active combinations of DNA G-quadruplex stabilizer agents and targeted small molecules. Complex spheroids include a stromal component modeled by human endothelial cells (HUVEC) and fibroblasts modeled by human mesenchymal stem cells (MSCs). The concentration ranges selected for each drug and investigational agent were based upon clinically achievable concentrations if the clinical Cmax of the agent was known.
Compounds. The drugs and investigational agents: pidnarulex (CX-5461; NSC782164), APTO-253 (NSC789042), BRACO-19 (NSC847499), peposertib (NSC802822), ceralasertib (NSC780249), elimusertib (NSC800525), camonsertib (NSC841442), AZD-1390 (NSC803789), olaparib (NSC753686), talazoparib (NSC767125), ART-558 (NSC835418), sotorasib (NSC818433), MRTX-1133 (NSC836407), SN-38 (NSC673596), topotecan (NSC609699), etoposide (NSC141540), doxorubicin (NSC123127), gemcitabine (NSC613327), 5-fluorouracil (NSC19893), paclitaxel (NSC125973), vemurafenib (NSC761431), panobinostat (NSC761190), R-306465 (JNJ-16241199; NSC773264), adavosertib (NSC754352), TP-3654 (NSC805149), carboplatin (NSC241240), KSQ-4279 (NSC840948), and staurosporine (NSC755774) were obtained from the National Cancer Institute (NCI) Developmental Therapeutics Program Chemical Repository (34). The FDA-approved anticancer drug set is available from the NCI Developmental Therapeutics Program. […] The stock solutions were prepared in dimethyl sulfoxide (DMSO, Sigma-Aldrich, St. Louis, MO, cat. D2650) at 800-fold the tested concentration and stored at -70 degrees C prior to their use. All drugs and investigational agents were tested over a range starting from a high concentration at or near the clinical Cmax and decreasing in half-log increments. If the clinical Cmax for an agent had not been determined, the highest concentration tested was 10 microM.
2.3 Cell Culture. All cells were maintained in an incubator at 37 degrees C and 5% CO2 with 95% humidity. The PDC lines were cultured according to standard operating procedures established by the NCI PDMR. All PDCs were thawed and cultured in Matrigel-coated flasks prepared with a working solution of 1X Ham's F-12 nutrient mix, without supplementation (Invitrogen, cat. 11765054), 100 U/mL penicillin-streptomycin (Invitrogen, cat. 15140122), and 2.5% Matrigel (Corning Inc., cat. 354248) for the first three passages. The 857933-349-R-J2-PDC line was cultured in 6C/Colon 1B media, which includes advanced DMEM/F-12 (Thermo Fisher Scientific, cat. 12634028), 10 mM HEPES (Thermo Fisher Scientific, cat. 15630080), 1X GlutaMAX supplement (Thermo Fisher Scientific, cat. 35050061), 0.1 mg/mL primocin (InvivoGen, cat. ant-pm-2), 10% defined fetal bovine serum, heat inactivated (HyClone Laboratories Inc., cat. SH30070.03HI), 50% L-WRN conditioned media (ATCC, cat. CRL-3276), 1.25 mM N-Acetyl-L-cysteine (Sigma-Aldrich, cat. A9165), 10 mM nicotinamide (Sigma-Aldrich, cat. N0636), 1X B-27 supplement (Thermo Fisher Scientific, cat. 17504044), 1X N-2 supplement (Thermo Fisher Scientific, cat. 17502048), 10 microM Y-27632 dihydrochloride (Tocris Bioscience, cat. 1254), and 50 ng/mL human EGF recombinant protein (Thermo Fisher Scientific, cat. PHG0311). The 485176-168-R4-J1-PDC line was cultured in Panc media, which includes all 6C/Colon 1B media components plus 100 ng/mL human FGF-10 (Thermo Fisher Scientific, cat. 100-26), 500 nM SB-431542 (Selleckchem, cat. S1067), and gastrin (Tocris, cat. 3006).
[…]

[1] = curve of first compound, second compound 0.0316 µM
[2] = curve of first compound, second compound 0.1 µM
[3] = curve of first compound, second compound 0.316 µM
[4] = curve of first compound, second compound 1 µM
[5] = curve of first compound, second compound 3.16 µM
[6] = curve of first compound, second compound 10 µM
[7] = second compound 0.0316 µM, first compound 0.0316 µM
[8] = second compound 0.0316 µM, first compound 0.316 µM
[9] = second compound 0.1 µM, first compound 0.0316 µM
[10] = second compound 0.1 µM, first compound 0.316 µM
[11] = second compound 0.316 µM, first compound 0.0316 µM
[12] = second compound 0.316 µM, first compound 0.316 µM
[13] = second compound 1 µM, first compound 0.0316 µM
[14] = second compound 1 µM, first compound 0.316 µM
[15] = second compound 3.16 µM, first compound 0.0316 µM
[16] = second compound 3.16 µM, first compound 0.316 µM
[17] = second compound 10 µM, first compound 0.0316 µM
[18] = second compound 10 µM, first compound 0.316 µM
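Also: spheroids exposed to the agents for seven days before readout.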
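For viability, T/C in this document: percent viability relative to DMSO vehicle control wells = 100%.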

O=C(c1cc(Cc2n[nH]c(=O)c3ccccc23)ccc1F)N1CCN(C(=O)C2CC2)CC1 + Cc1[nH]c2ccc(F)cc2c1-c1nc2c3cccnc3c3ncccc3c2[nH]1
inactive: viability, T/C [7] 109% | viability, T/C (second compound 0.0316 µM, first compound 0.1 µM) 102% | viability, T/C [8] 102% | viability, T/C (second compound 0.0316 µM, first compound 1 µM) 102% | viability, T/C (second compound 0.0316 µM, first compound 3.16 µM) 99% | viability, T/C (second compound 0.0316 µM, first compound 10 µM) 91.1% | viability, T/C [9] 95.1% | viability, T/C (second compound 0.1 µM, first compound 0.1 µM) 86.3% | viability, T/C [10] 97.1% | viability, T/C (second compound 0.1 µM, first compound 1 µM) 110% | viability, T/C (second compound 0.1 µM, first compound 3.16 µM) 113% | viability, T/C (second compound 0.1 µM, first compound 10 µM) 89.9% | viability, T/C [11] 89.9% | viability, T/C (second compound 0.316 µM, first compound 0.1 µM) 109% | viability, T/C [12] 90.2% | viability, T/C (second compound 0.316 µM, first compound 1 µM) 95.1% | viability, T/C (second compound 0.316 µM, first compound 3.16 µM) 103% | viability, T/C (second compound 0.316 µM, first compound 10 µM) 104% | viability, T/C [13] 88.8% | viability, T/C (second compound 1 µM, first compound 0.1 µM) 125% | viability, T/C [14] 127% | viability, T/C (second compound 1 µM, first compound 1 µM) 115% | viability, T/C (second compound 1 µM, first compound 3.16 µM) 90.4% | viability, T/C (second compound 1 µM, first compound 10 µM) 88.5% | viability, T/C [15] 91.3% | viability, T/C (second compound 3.16 µM, first compound 0.1 µM) 95.7% | viability, T/C [16] 93.2% | viability, T/C (second compound 3.16 µM, first compound 1 µM) 87.5% | viability, T/C (second compound 3.16 µM, first compound 3.16 µM) 104% | viability, T/C (second compound 3.16 µM, first compound 10 µM) 85% | viability, T/C [17] 91.6% | viability, T/C (second compound 10 µM, first compound 0.1 µM) 97.2% | viability, T/C [18] 106% | viability, T/C (second compound 10 µM, first compound 1 µM) 104% | viability, T/C (second compound 10 µM, first compound 3.16 µM) 92.5% | viability, T/C (second compound 10 µM, first compound 10 µM) 93%
> 10 µM: IC50 [1] | IC50 [2] | IC50 [3] | IC50 [4] | IC50 [5] | IC50 [6]

COc1cc(C2c3cc4c(cc3C(OC3OC5COC(C)OC5C(O)C3O)C3COC(=O)C23)OCO4)cc(OC)c1O (stereo unspecified)
inactive: viability, T/C (compound 0.0316 µM) 102% and 90.8% and 122% | viability, T/C (compound 0.1 µM) 91.4% and 97.2% and 87.9% | viability, T/C (compound 0.316 µM) 85.3% and 106% (2×) | viability, T/C (compound 1 µM) 97.1% and 91.9% and 92.2% | viability, T/C (compound 3.16 µM) 75.5% and 101% and 99% | viability, T/C (compound 10 µM) 94.6% and 84.8% and 92.6%
> 10 µM: IC50 (curve of compound)

CCc1c2c(nc3ccc(O)cc13)-c1cc3c(c(=O)n1C2)COC(=O)[C@]3(O)CC + Cc1[nH]c2ccc(F)cc2c1-c1nc2c3cccnc3c3ncccc3c2[nH]1
inactive: viability, T/C (second compound 0.0316 µM, first compound 0.000999 µM) 106% | viability, T/C (second compound 0.0316 µM, first compound 0.00316 µM) 88.8% | viability, T/C (second compound 0.0316 µM, first compound 0.00999 µM) 73.2% | viability, T/C [7] 73.7% | viability, T/C (second compound 0.0316 µM, first compound 0.0999 µM) 79.6% | viability, T/C [8] 66.1% | viability, T/C (second compound 0.1 µM, first compound 0.000999 µM) 108% | viability, T/C (second compound 0.1 µM, first compound 0.00316 µM) 117% | viability, T/C (second compound 0.1 µM, first compound 0.00999 µM) 85.4% | viability, T/C [9] 90.2% | viability, T/C (second compound 0.1 µM, first compound 0.0999 µM) 79.6% | viability, T/C [10] 64.8% | viability, T/C (second compound 0.316 µM, first compound 0.000999 µM) 91.1% | viability, T/C (second compound 0.316 µM, first compound 0.00316 µM) 117% | viability, T/C (second compound 0.316 µM, first compound 0.00999 µM) 69.2% | viability, T/C [11] 84.2% | viability, T/C (second compound 0.316 µM, first compound 0.0999 µM) 88.2% | viability, T/C [12] 70.2% | viability, T/C (second compound 1 µM, first compound 0.000999 µM) 105% | viability, T/C (second compound 1 µM, first compound 0.00316 µM) 92.7% | viability, T/C (second compound 1 µM, first compound 0.00999 µM) 94.2% | viability, T/C [13] 77.5% | viability, T/C (second compound 1 µM, first compound 0.0999 µM) 84% | viability, T/C [14] 68.6% | viability, T/C (second compound 3.16 µM, first compound 0.000999 µM) 102% | viability, T/C (second compound 3.16 µM, first compound 0.00316 µM) 114% | viability, T/C (second compound 3.16 µM, first compound 0.00999 µM) 75.7% | viability, T/C [15] 80.7% | viability, T/C (second compound 3.16 µM, first compound 0.0999 µM) 79.9% | viability, T/C [16] 72.2% | viability, T/C (second compound 10 µM, first compound 0.000999 µM) 96.1% | viability, T/C (second compound 10 µM, first compound 0.00316 µM) 94.4% | viability, T/C (second compound 10 µM, first compound 0.00999 µM) 80.7% | viability, T/C [17] 76.8% | viability, T/C (second compound 10 µM, first compound 0.0999 µM) 60.1% | viability, T/C [18] 58.8%
> 0.316 µM: IC50 [1] | IC50 [2] | IC50 [3] | IC50 [4] | IC50 [5] | IC50 [6]
